According to PubChem BioAssay AID192 (DTP/NCI, 2004):
“And” between values parts separate entries of the source, which are not always exact repeats. Equal values may be shown once. Toxic doses and inconclusive results are not listed. Rule for the calls: active = survival T/C of 150% or more; inactive = T/C below 125% in these data.

Tested on: BDF1 mice, B16 melanoma ip, median survival T/C
Test: NCI In Vivo Anticancer Drug Screen. Data for tumor model B16 Melanoma (intraperitoneal) in B6D2F1 (BDF1) mice
Details: endpoint: median survival time, higher = longer survival
Procedure, shortened: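 Mice with transplantable tumors; drug vs vehicle groups; endpoint survival or tumor size; value = T/C.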

[1] = dose: 5.0 mg/kg/injection, schedule: Q01DX009 (ip), vehicle: saline
[2] = dose: 100.0 mg/kg/injection, schedule: Q01DX009 (ip), vehicle: Klucel (hydroxypropylcellulose) (HPC)
[3] = dose: 200.0 mg/kg/injection, schedule: Q01DX009 (ip), vehicle: Klucel (hydroxypropylcellulose) (HPC)
[4] = dose: 25.0 mg/kg/injection, schedule: Q01DX009 (ip), vehicle: saline

Measured: T/C

OCCN1CCN(CCCN2c3ccccc3Sc3ccc(C(F)(F)F)cc32)CC1
inactive: dose: 0.04 mg/kg/injection, schedule: Q01DX009 (ip), vehicle: saline 91 % of control | dose: 0.09 mg/kg/injection, schedule: Q01DX009 (ip), vehicle: saline 90 % of control and 106 % of control | dose: 0.19 mg/kg/injection, schedule: Q01DX009 (ip), vehicle: saline 102 % of control and 93 % of control | dose: 0.39 mg/kg/injection, schedule: Q01DX009 (ip), vehicle: saline 103 % of control and 109 % of control | dose: 0.78 mg/kg/injection, schedule: Q01DX009 (ip), vehicle: saline 99 % of control and 91 % of control | dose: 1.56 mg/kg/injection, schedule: Q01DX009 (ip), vehicle: saline 97 % of control

C[C@H](CN1CC(=O)NC(=O)C1)N1CC(=O)NC(=O)C1
inactive: dose: 8.0 mg/kg/injection, schedule: Q01DX009 (ip), vehicle: saline 108 % of control | dose: 16.0 mg/kg/injection, schedule: Q01DX009 (ip), vehicle: saline 120 % of control | dose: 16.0 mg/kg/injection, schedule: Q01DX009 (ip), vehicle: water 107 % of control | dose: 25.0 mg/kg/injection, schedule: Q04DX003 (ip), vehicle: water 111 % of control | dose: 32.0 mg/kg/injection, schedule: Q01DX009 (ip), vehicle: water 111 % of control | dose: 50.0 mg/kg/injection, schedule: Q04DX003 (ip), vehicle: water 94 % of control | dose: 100.0 mg/kg/injection, schedule: Q04DX003 (ip), vehicle: water 106 % of control | dose: 128.0 mg/kg/injection, schedule: Q01DX009 (ip), vehicle: water 101 % of control | dose: 200.0 mg/kg/injection, schedule: Q04DX003 (ip), vehicle: water 107 % of control

CCN(CC)c1ccc(N)cc1
inactive: [1] 109 % of control | dose: 10.0 mg/kg/injection, schedule: Q01DX009 (ip), vehicle: saline 95 % of control | dose: 20.0 mg/kg/injection, schedule: Q01DX009 (ip), vehicle: saline 95 % of control

CCOC(=O)C(C)Nc1ccccc1 (stereo not drawn)
inactive: [2] 102 % of control | [3] 91 % of control | dose: 300.0 mg/kg/injection, schedule: Q01DX009 (ip), vehicle: Klucel (hydroxypropylcellulose) (HPC) 121 % of control

COC1=C2C[C@@H](C)C[C@@H](OC)[C@@H](O)[C@H](C)/C=C(\C)[C@@H](OC(N)=O)[C@H](OC)/C=C\C=C(/C)C(=O)NC(=CC1=O)C2=O
inactive: dose: 0.5 mg/kg/injection, schedule: Q01DX005 (ip), vehicle: other 110 % of control | dose: 0.5 mg/kg/injection, schedule: Q01DX005 (ip), vehicle: saline with Tween-80 112 % of control | dose: 0.5 mg/kg/injection, schedule: Q01DX005 (ip), vehicle: water 112 % of control and 118 % of control | dose: 0.5 mg/kg/injection, schedule: Q01DX009 (ip), vehicle: saline with Tween-80 110 % of control | dose: 1.0 mg/kg/injection, schedule: Q01DX005 (ip), vehicle: saline with Tween-80 118 % of control | dose: 1.0 mg/kg/injection, schedule: Q01DX005 (ip), vehicle: water 119 % of control | dose: 2.0 mg/kg/injection, schedule: Q01DX005 (ip), vehicle: saline with Tween-80 118 % of control

COc1ccc(/C=C/c2ccc3ccccc3[n+]2C)c(OC)c1OC
inactive: dose: 2.5 mg/kg/injection, schedule: Q01DX009 (ip), vehicle: saline 104 % of control | [1] 113 % of control

CS(=O)(=O)OCc1c(O)c2c(c(O)c1COS(C)(=O)=O)C(=O)C=CC2=O
inactive: dose: 6.25 mg/kg/injection, schedule: Q01DX009 (ip), vehicle: Klucel (hydroxypropylcellulose) (HPC) 111 % of control | dose: 12.5 mg/kg/injection, schedule: Q01DX009 (ip), vehicle: Klucel (hydroxypropylcellulose) (HPC) 106 % of control | dose: 25.0 mg/kg/injection, schedule: Q01DX009 (ip), vehicle: Klucel (hydroxypropylcellulose) (HPC) 102 % of control | dose: 50.0 mg/kg/injection, schedule: Q01DX009 (ip), vehicle: Klucel (hydroxypropylcellulose) (HPC) 97 % of control

CC(Cc1ccc2c(c1)OCO2)C(C)Cc1ccc2c(c1)OCO2 (stereo not drawn)
inactive: dose: 100.0 mg/kg/injection, schedule: Q01DX009 (ip), vehicle: other 94 % of control | dose: 200.0 mg/kg/injection, schedule: Q01DX009 (ip), vehicle: other 89 % of control | dose: 400.0 mg/kg/injection, schedule: Q01DX009 (ip), vehicle: other 89 % of control

CN(C)CCOC(=O)COc1ccc(Cl)cc1
inactive: [4] 104 % of control | dose: 50.0 mg/kg/injection, schedule: Q01DX009 (ip), vehicle: saline 104 % of control | dose: 100.0 mg/kg/injection, schedule: Q01DX009 (ip), vehicle: saline 109 % of control | dose: 200.0 mg/kg/injection, schedule: Q01DX009 (ip), vehicle: saline 102 % of control | dose: 400.0 mg/kg/injection, schedule: Q01DX009 (ip), vehicle: saline 97 % of control

CN1C(=O)NC(c2ccc(Cl)cc2)(c2ccc(Cl)cc2)C1=O
inactive: dose: 0.78 mg/kg/injection, schedule: Q01DX009 (ip), vehicle: water 100 % of control | dose: 1.56 mg/kg/injection, schedule: Q01DX009 (ip), vehicle: water 95 % of control | dose: 3.12 mg/kg/injection, schedule: Q01DX009 (ip), vehicle: water 100 % of control | dose: 6.25 mg/kg/injection, schedule: Q01DX009 (ip), vehicle: water 100 % of control and 112 % of control | dose: 12.5 mg/kg/injection, schedule: Q01DX009 (ip), vehicle: distilled water + Tween-80 100 % of control | dose: 12.5 mg/kg/injection, schedule: Q01DX009 (ip), vehicle: water 99 % of control and 102 % of control | dose: 25.0 mg/kg/injection, schedule: Q01DX009 (ip), vehicle: distilled water + Tween-80 105 % of control | dose: 25.0 mg/kg/injection, schedule: Q01DX009 (ip), vehicle: water 101 % of control and 105 % of control | dose: 50.0 mg/kg/injection, schedule: Q01DX009 (ip), vehicle: distilled water + Tween-80 99 % of control | dose: 100.0 mg/kg/injection, schedule: Q01DX009 (ip), vehicle: distilled water + Tween-80 116 % of control | dose: 200.0 mg/kg/injection, schedule: Q01DX009 (ip), vehicle: distilled water + Tween-80 98 % of control

Cc1ccc(C)c(NC(=O)Nc2ccccc2Cl)c1
inactive: dose: 25.0 mg/kg/injection, schedule: Q01DX009 (ip), vehicle: gum acacia 86 % of control | dose: 50.0 mg/kg/injection, schedule: Q01DX009 (ip), vehicle: gum acacia 90 % of control | dose: 100.0 mg/kg/injection, schedule: Q01DX009 (ip), vehicle: gum acacia 88 % of control | dose: 100.0 mg/kg/injection, schedule: Q04DX003 (ip), vehicle: gum acacia 90 % of control

COc1ccccc1NC(=O)Nc1ccccc1OC
inactive: [2] 89 % of control | [3] 89 % of control | dose: 400.0 mg/kg/injection, schedule: Q01DX009 (ip), vehicle: Klucel (hydroxypropylcellulose) (HPC) 88 % of control

O=C/C=C/c1ccc([N+](=O)[O-])cc1
inactive: dose: 25.0 mg/kg/injection, schedule: Q01DX009 (ip), vehicle: saline with Tween-80 100 % of control

Cc1ccc(C)c(NC(=O)c2ccccc2C(=O)O)c1
inactive: [2] 94 % of control | [3] 91 % of control

CCN(CC)CCOc1ccc(NC2=C(Cl)C(=O)C(Nc3ccc(OCCN(CC)CC)cc3)=C(Cl)C2=O)cc1
inactive: dose: 6.25 mg/kg/injection, schedule: Q01DX009 (ip), vehicle: saline + alcohol 95 % of control | dose: 12.5 mg/kg/injection, schedule: Q01DX009 (ip), vehicle: saline + alcohol 98 % of control | dose: 25.0 mg/kg/injection, schedule: Q01DX009 (ip), vehicle: saline + alcohol 91 % of control

Cc1cc2nc(CO)[nH]c2cc1C
inactive: [2] 111 % of control | dose: 100.0 mg/kg/injection, schedule: Q04DX003 (ip), vehicle: Klucel (hydroxypropylcellulose) (HPC) 100 % of control | dose: 200.0 mg/kg/injection, schedule: Q04DX003 (ip), vehicle: Klucel (hydroxypropylcellulose) (HPC) 94 % of control | dose: 400.0 mg/kg/injection, schedule: Q04DX003 (ip), vehicle: Klucel (hydroxypropylcellulose) (HPC) 97 % of control

COCCNCCOC
inactive: dose: 160.0 mg/kg/injection, schedule: Q01DX009 (ip), vehicle: saline 118 % of control | dose: 370.0 mg/kg/injection, schedule: Q01DX009 (ip), vehicle: saline 121 % of control

Cc1ccc(C(=O)C=C(C(F)(F)F)C(F)(F)F)cc1
inactive: dose: 6.25 mg/kg/injection, schedule: Q04DX003 (ip), vehicle: saline with Tween-80 111 % of control | dose: 12.5 mg/kg/injection, schedule: Q04DX003 (ip), vehicle: saline with Tween-80 100 % of control | dose: 25.0 mg/kg/injection, schedule: Q04DX003 (ip), vehicle: saline with Tween-80 105 % of control

NC(=O)c1cc2c(N)[nH]nc2nc1N
inactive: dose: 6.25 mg/kg/injection, schedule: Q01DX009 (ip), vehicle: saline 106 % of control | dose: 12.5 mg/kg/injection, schedule: Q01DX009 (ip), vehicle: saline 100 % of control | [4] 95 % of control
